Assay results: patent US20230159527A1, “COMPOUNDS AS BCL-2 INHIBITORS” (Fochon Pharmaceuticals, Ltd., priority 2020, published 2023)
Where two headings read alike, the source gives them in different places.

How the values were obtained:
Format in all cases: cell-based
Toledo cells = assay: Cell proliferation assay, Toledo cells (MTS, 72 h); details: Toledo cells, MTS, read-out: Toledo IC50
Summary of the method: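 IC50 was derived from 490 nm absorbance after a 2 h MTS step. Before that, compounds at 1.5–10000 nM final (nine points) acted on Toledo cells for 72 h at 37 °C, 5% CO2. Cells were seeded at 30000/well in 10% FBS RPMI-1640 and rested 4 h before dosing.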

RS4;11-BCL-2 G101V cells = assay: Cell proliferation assay, engineered RS4;11 cells stably overexpressing BCL-2 G101V (MTS, 168 h); details: read-out: RS4, 11 BCL2- G101V
Summary of the method: (§1)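 Proliferation read-out: MTS for exactly 2 h, then absorbance at 490 nm, with IC50 derived from the fit. Before this, engineered RS4;11 lines (BCL-2 G101V, F104L; 5000 cells/well) were exposed 168 h at 37 °C to serially diluted compound, final 1.4–10000 nM.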

RS4;11-BCL-2 F104L cells = assay: Cell proliferation assay, engineered RS4;11 cells stably overexpressing BCL-2 F104L (MTS, 168 h); details: read-out: RS4, 11 BCL2-F104L
Summary of the method: as §1

Compound	IC50 (Toledo cells; Homo sapiens) [nM]	IC50 (RS4;11-BCL-2 G101V cells; Homo sapiens, RS4-11, 168 h) [nM]	IC50 (RS4;11-BCL-2 F104L cells; Homo sapiens) [nM]	IC50 (Toledo cells) [nM]	IC50 (RS4;11-BCL-2 G101V cells) [nM]	IC50 (RS4;11-BCL-2 F104L cells) [nM]
COCCOc1nc2[nH]cc(F)c2cc1Oc1cc(N2CCC3(CC2)CC(N2CCC[C@H]2c2ccccc2C(C)C)C3)ccc1C(=O)NS(=O)(=O)c1cc2c(c([N+](=O)[O-])c1)N[C@@H]([C@H]1CC[C@](C)(O)CC1)CO2 (single isomer, unassigned) [Example D-71, 2-((3-fluoro-6-(2-methoxyethoxy)-1H-pyrrolo[2,3-b]pyridin-5-yl)oxy)-N-(((S)-3-((1r,4S)-4-hydroxy-4-methylcyclohexyl)-5-nitro-3,4-dihydro-2H-benzo[b][1,4]oxazin-7-yl)sulfonyl)-4-(2-((R or S)-2-(2-isopropylphenyl)pyrrolidin-1-yl)-7-azaspiro[3.5]nonan-7-yl)benzamide]	1	13	12			
CC(C)c1ccccc1[C@@H]1CCC[C@@H]1N1CC2(CCN(c3ccc(C(=O)NS(=O)(=O)c4cnc(NC[C@H]5CC[C@](C)(O)CC5)c([N+](=O)[O-])c4)c(Oc4cc5c(F)c[nH]c5nc4F)c3)CC2)C1 (single isomer, unassigned) [Example A-150, 2-((3,6-difluoro-1H-pyrrolo[2,3-b]pyridin-5-yl)oxy)-N-((6-((((1r,4r)-4-hydroxy-4-methylcyclohexyl)methyl)amino)-5-nitropyridin-3-yl)sulfonyl)-4-(2-((1S,2S or 1R,2R)-2-(2-isopropylphenyl)cyclo-petyl)-2,7-diazaspiro[3.5]nonan-7-yl) benzamide]	1	6	1			
CC(C)c1ccccc1[C@@H]1CCCN1C1CC2(CCN(c3ccc(C(=O)NS(=O)(=O)c4cc5c(c([N+](=O)[O-])c4)N[C@@H]([C@H]4CC[C@](C)(O)CC4)CO5)c(Oc4cc5cc[nH]c5nc4Cl)c3)CC2)C1 (single isomer, unassigned) [Example D-18, 2-((6-chloro-1H-pyrrolo[2,3-b]pyridin-5-yl)oxy)-N-(((S)-3-((1r,4S)-4-hydroxy-4-methylcyclohexyl)-5-nitro-3,4-dihydro-2H-benzo[b] [1,4]oxazin-7-yl)sulfonyl)-4-(2-((R or S)-2-(2-isopropylphenyl)pyrrolidin-1-yl)-7-azaspiro[3.5]nonan-7-yl)benzamide]	1	14	33			
CCOc1nc2[nH]ccc2cc1Oc1cc(N2CCC3(CC2)CC(N2CCC[C@H]2c2ccccc2C(C)C)C3)ccc1C(=O)NS(=O)(=O)c1cc2c(c([N+](=O)[O-])c1)N[C@@H]([C@H]1CC[C@](C)(O)CC1)CO2 (single isomer, unassigned) [Example D-65, 2-((6-ethoxy-1H-pyrrolo[2,3-b]pyridin-5-yl)oxy)-N-(((5)-3-((1r,4S)-4-hydroxy-4-methylcyclohexyl)-5-nitro-3,4-dihydro-2H-benzo[b] [1,4]oxazin-7-yl)sulfonyl)-4-(2-((R or S)-2-(2-isopropylphenyl)pyrrolidin-1-yl)-7-azaspiro[3.5]nonan-7-yl)benzamide]	1	1	20			
CC(C)c1ccccc1[C@@H]1CCCN1C1CC2(CCN(c3ccc(C(=O)NS(=O)(=O)c4cc5c(c([N+](=O)[O-])c4)N[C@@H]([C@H]4CC[C@](C)(O)CC4)CO5)c(Oc4cc5cc[nH]c5nc4OC[C@@H]4COCCO4)c3)CC2)C1 (single isomer, unassigned) [Example D-251, 2-((6-(((S)-1,4-dioxan-2-yl)methoxy)-1H-pyrrolo[2,3-b]pyridin-5-yl)oxy)-N-(((S)-3-((1r,4S)-4-hydroxy-4-methylcyclohexyl)-5-nitro-3,4-dihydro-2H-benzo[b][1,4]oxazin-7-yl)sulfonyl)-4-(2-((R or S)-2-(2-isopropylphenyl)pyrrolidin-1-yl)-7-azaspiro[3.5]nonan-7-yl)benzamide]	1	6	1			
CCOc1nc2[nH]cc(F)c2cc1Oc1cc(N2CCC3(CC2)CC(N2CCC[C@H]2c2ccccc2C(C)C)C3)ccc1C(=O)NS(=O)(=O)c1cc2c(c([N+](=O)[O-])c1)N[C@@H]([C@H]1CC[C@](C)(O)CC1)CO2 (single isomer, unassigned) [Example D-85, 2-((6-ethoxy-3-fluoro-1H-pyrrolo [2,3-b]pyridin-5-yl)oxy)-N-(((S)-3-((1r,4S)-4-hydroxy-4-methylcyclohexyl)-5-nitro-3,4-dihydro-2H-benzo[b][1,4]oxazin-7-yl)sulfonyl)-4-(2-((R or S)-2-(2-isopropylphenyl)pyrrolidin-1-yl)-7-azaspiro[3.5]nonan-7-yl)benzamide]	1	28	5			
CC(C)c1ccccc1[C@@H]1CCCN1C1CC2(CCN(c3ccc(C(=O)NS(=O)(=O)c4cc5c(c([N+](=O)[O-])c4)N[C@@H]([C@H]4CC[C@](C)(O)CC4)CO5)c(Oc4cc5cc[nH]c5nc4OC[C@@H]4COCCN4)c3)CC2)C1 (single isomer, unassigned) [Example D-214, N-(((S)-3-((1r,4S)-4-hydroxy-4-methylcyclohexyl)-5-nitro-3,4-dihydro-2H-benzo[b][1,4]oxazin-7-yl)sulfonyl)-4-(2-((R or S)-2-(2-isopropylphenyl)pyrrolidin-1-yl)-7-azaspiro[3.5]nonan-7-yl)-2-((6-(((S)-morpholin-3-yl)methoxy)-1H-pyrrolo[2,3-b]pyridin-5-yl)oxy)benzamide]	1	1	1			
COCCOc1nc2[nH]cc(F)c2cc1Oc1cc(N2CCC3(CC2)CN([C@H]2CCC[C@H]2c2ccccc2C(C)C)C3)ccc1C(=O)NS(=O)(=O)c1cnc(NC[C@H]2CC[C@](C)(O)CC2)c([N+](=O)[O-])c1 (single isomer, unassigned) [Example A-154, 2-((3-fluoro-6-(2-methoxyethoxy)-1H-pyrrolo[2,3-b]pyridin-5-yl)oxy)-N-((6-(((1r,4r)-4-hydroxy-4-methyl-cyclohexyl)methyl)amino)-5-nitro-pyridin-3-yl)sulfonyl)-4-(2-((1S,2S or 1R,2R)-2-(2-isopropylphenyyl)cyclo-pentyl)-2,7-diazaspiro[3.5]nonan-7-yl) benzamide]	1	57	19			
CC(C)c1ccccc1[C@@H]1CCCN1C1CC2(CCN(c3ccc(C(=O)NS(=O)(=O)c4cc5c(c([N+](=O)[O-])c4)N[C@@H]([C@H]4CC[C@](C)(O)CC4)CO5)c(Oc4cnc5[nH]cc(F)c5c4)c3)CC2)C1 (single isomer, unassigned) [Example D-7, 2-((3-fluoro-1H-pyrrolo[2,3-b]pyridin-5-yl)oxy)-N-(((S)-3-((1r,4S)-4-hydroxy-4-methylcyclohexyl)-5-nitro-3,4-dihydro-2H-benzo[b] [1,4]oxazin-7-yl)sulfonyl)-4-(2-((R or S)-2-(2-isopropylphenyl)pyrrolidin-1-yl)-7-azaspiro[3.5]nonan-7-yl)benzamide]	1	1	14			
2-((3-fluoro-6-methoxy-1H-pyrrolo [2,3-b]pyridin-5-yl)oxy)-N-(((S)- 3-((1r,4S)-4-hydroxy-4- methylcyclohexyl)- 5-nitro-3,4-dihydro- 2H-benzo[b][1,4]oxazin-7-yl) sulfonyl)-4-(2-((1S,2S or 1R,2R)- 2-(2-isopropylphenyl) cyclopentyl)-2,7-diazaspiro[3.5] nonan-7-yl)benzamide [Example D-102]				1	16	1
